Source: article PMC5218480 (PLoS ONE, 2017)

Tested on: MV-4-11 cells
Test: Gene expression microarray analysis (Affymetrix PrimeView) and GSEA
Assay type: cell-based, human
Set-up: RFU PODN (11730768_x_at) / Fold change /veh PODN (11730768_x_at) / RFU LINC00158 (11744669_a_at) / Fold change /veh LINC00158 (11744669_a_at) / RFU DUSP10 (11751237_a_at) / Fold change /veh DUSP10 (11751237_a_at) / RFU ID3 (11757404_x_at) / Fold change /veh ID3 (11757404_x_at) / RFU PLEKHG5 (11737974_s_at) / Fold change /veh PLEKHG5 (11737974_s_at) / RFU LRRC4B (11730491_at) / Fold change /veh LRRC4B (11730491_at) / RFU GIMAP4 (11747438_a_at) / Fold change /veh GIMAP4 (11747438_a_at) / RFU KRT8 (11758183_x_at) / Fold change /veh KRT8 (11758183_x_at) / RFU CNN1 (11734310_a_at) / Fold change /veh CNN1 (11734310_a_at) / RFU VPS37D (11726825_at) / Fold change /veh VPS37D (11726825_at) / RFU C10orf10 (11716522_x_at) / Fold change /veh C10orf10 (11716522_x_at) / RFU KIR2DL2 /// KIR2DL4 /// KIR2DL5A /// KIR2DL5B /// KIR2DS1 /// KIR2DS2 /// KIR2DS3 /// KIR2DS4 /// KIR3DL3 /// KIR3DL3 /// KIR3DS1 (11738374_at) / Fold change /veh KIR2DL2 /// KIR2DL4 /// KIR2DL5A /// KIR2DL5B /// KIR2DS1 /// KIR2DS2 /// KIR2DS3 /// KIR2DS4 /// KIR3DL3 /// KIR3DL3 /// KIR3DS1 (11738374_at) / RFU C1QL1 (11718748_at) / Fold change /veh C1QL1 (11718748_at) / RFU TMPRSS4 (11747572_a_at) / Fold change /veh TMPRSS4 (11747572_a_at) / RFU HAMP (11756126_x_at) / Fold change /veh HAMP (11756126_x_at) / RFU RNFT2 (11725882_a_at) / Fold change /veh RNFT2 (11725882_a_at) / RFU NR4A2 (11747474_a_at) / Fold change /veh NR4A2 (11747474_a_at) / RFU ABCC12 (11746883_a_at) / Fold change /veh ABCC12 (11746883_a_at) / RFU TMEM136 (11760407_x_at) / Fold change /veh TMEM136 (11760407_x_at) / RFU CLDN22 /// WWC2 (11732394_at) / Fold change /veh CLDN22 /// WWC2 (11732394_at) / RFU HLA-DPB1 (11760878_x_at) / Fold change /veh HLA-DPB1 (11760878_x_at) / RFU SPINT1 (11716480_a_at) / Fold change /veh SPINT1 (11716480_a_at) / RFU GAP43 (11754022_s_at) / Fold change /veh GAP43 (11754022_s_at) / RFU A4GNT (11735810_at) / Fold change /veh A4GNT (11735810_at) / RFU PRB3 (11715151_x_at) / Fold change /veh PRB3 (11715151_x_at) / RFU TUBB4B (11761932_at) / Fold change /veh TUBB4B (11761932_at) / RFU CAPN14 (11732068_a_at) / Fold change /veh CAPN14 (11732068_a_at) / RFU TMCC2 (11721928_a_at) / Fold change /veh TMCC2 (11721928_a_at) / RFU IRGQ (11745062_a_at) / Fold change /veh IRGQ (11745062_a_at) / RFU FAM174B (11720279_a_at) / Fold change /veh FAM174B (11720279_a_at) / RFU TMPRSS4 (11748680_a_at) / Fold change /veh TMPRSS4 (11748680_a_at) / RFU FAM212B (11763350_a_at) / Fold change /veh FAM212B (11763350_a_at) / RFU PLEKHG5 (11743358_a_at) / Fold change /veh PLEKHG5 (11743358_a_at) / RFU ZSCAN30 (11745921_a_at) / Fold change /veh ZSCAN30 (11745921_a_at) / RFU CMKLR1 (11741424_a_at) / Fold change /veh CMKLR1 (11741424_a_at) / RFU LOC101060620 /// MAPK8IP1 (11723275_at) / Fold change /veh LOC101060620 /// MAPK8IP1 (11723275_at) / RFU SPTSSB (11747773_x_at) / Fold change /veh SPTSSB (11747773_x_at) / RFU PRSS12 (11739890_at) / Fold change /veh PRSS12 (11739890_at) / RFU BIN1 (11741810_x_at) / Fold change /veh BIN1 (11741810_x_at) / RFU WNT11 (11732464_a_at) / Fold change /veh WNT11 (11732464_a_at) / RFU C10orf10 (11716521_a_at) / Fold change /veh C10orf10 (11716521_a_at) / RFU C5orf56 (11738089_at) / Fold change /veh C5orf56 (11738089_at) / RFU CYB561 (11721691_x_at) / Fold change /veh CYB561 (11721691_x_at) / RFU ANKRD19P (11752326_a_at) / Fold change /veh ANKRD19P (11752326_a_at) / RFU OR2T12 /// OR2T33 /// OR2T8 (11738714_s_at) / Fold change /veh OR2T12 /// OR2T33 /// OR2T8 (11738714_s_at) / RFU VCAN (11748164_a_at) / Fold change /veh VCAN (11748164_a_at) / RFU JSRP1 (11732532_at) / Fold change /veh JSRP1 (11732532_at) / RFU KRTAP10-11 (11738290_x_at) / Fold change /veh KRTAP10-11 (11738290_x_at) / RFU MYO3A (11730013_a_at) / Fold change /veh MYO3A (11730013_a_at) / RFU EBF3 (11725865_a_at) / Fold change /veh EBF3 (11725865_a_at) / RFU CAMK2N1 (11719241_x_at) / Fold change /veh CAMK2N1 (11719241_x_at) / RFU C5orf56 (11738088_a_at) / Fold change /veh C5orf56 (11738088_a_at) / RFU OLFML3 (11715873_a_at) / Fold change /veh OLFML3 (11715873_a_at) / RFU LOC100653217 /// NTM (11731650_a_at) / Fold change /veh LOC100653217 /// NTM (11731650_a_at) / RFU MAPK11 (11762145_a_at) / Fold change /veh MAPK11 (11762145_a_at) / RFU FIZ1 (11724087_x_at) / Fold change /veh FIZ1 (11724087_x_at) / RFU OASL (11726364_x_at) / Fold change /veh OASL (11726364_x_at) / RFU SOX15 (11748057_x_at) / Fold change /veh SOX15 (11748057_x_at) / RFU CD79A (11719716_a_at) / Fold change /veh CD79A (11719716_a_at) / RFU HIST1H1D (11736915_at) / Fold change /veh HIST1H1D (11736915_at) / RFU CASKIN2 (11723855_a_at) / Fold change /veh CASKIN2 (11723855_a_at) / RFU LOC730098 (11760151_x_at) / Fold change /veh LOC730098 (11760151_x_at) / RFU OR4N2 (11742367_at) / Fold change /veh OR4N2 (11742367_at) / RFU PRRT2 (11749266_a_at) / Fold change /veh PRRT2 (11749266_a_at) / RFU SNX32 (11753110_a_at) / Fold change /veh SNX32 (11753110_a_at) / RFU CDHR5 (11726645_a_at) / Fold change /veh CDHR5 (11726645_a_at) / RFU RCAN1 (11760418_a_at) / Fold change /veh RCAN1 (11760418_a_at) / RFU FAM167A (11723789_a_at) / Fold change /veh FAM167A (11723789_a_at) / RFU FAM26E (11764081_at) / Fold change /veh FAM26E (11764081_at) / RFU ISYNA1 (11749810_s_at) / Fold change /veh ISYNA1 (11749810_s_at) / RFU ACY1 (11761880_at) / Fold change /veh ACY1 (11761880_at) / RFU 11764098_at / Fold change /veh 11764098_at / RFU SAMD14 (11745864_x_at) / Fold change /veh SAMD14 (11745864_x_at) / RFU NPB (11741838_a_at) / Fold change /veh NPB (11741838_a_at) / RFU TMPRSS6 (11731388_a_at) / Fold change /veh TMPRSS6 (11731388_a_at) / RFU KRTAP10-2 (11738614_at) / Fold change /veh KRTAP10-2 (11738614_at) / RFU ARHGAP8 /// PRR5-ARHGAP8 (11727945_x_at) / Fold change /veh ARHGAP8 /// PRR5-ARHGAP8 (11727945_x_at) / RFU KRTAP5-7 /// NADSYN1 (11734609_at) / Fold change /veh KRTAP5-7 /// NADSYN1 (11734609_at) / RFU RASL12 (11751679_a_at) / Fold change /veh RASL12 (11751679_a_at) / RFU CDKN2B (11736163_a_at) / Fold change /veh CDKN2B (11736163_a_at) / RFU PRF1 (11729649_at) / Fold change /veh PRF1 (11729649_at) / RFU, ZNF638 /// ZNF638-IT1 / Fold change vs veh, ZNF638 /// ZNF638-IT1 / RFU, PANK3 / Fold change vs veh, PANK3 / RFU, SH3YL1 / Fold change vs veh, SH3YL1 / RFU, ZEB2 / Fold change vs veh, ZEB2 / RFU, NRIP1 / Fold change vs veh, NRIP1 / RFU, PTTG1IP / Fold change vs veh, PTTG1IP / RFU, CAPN2 / Fold change vs veh, CAPN2 / RFU, MED14 / Fold change vs veh, MED14 / RFU, SNORA58 / Fold change vs veh, SNORA58 / RFU, C1orf63 / Fold change vs veh, C1orf63 / RFU, LRRFIP1 / Fold change vs veh, LRRFIP1 / RFU, NDUFAF7 / Fold change vs veh, NDUFAF7 / RFU, SLC12A2 / Fold change vs veh, SLC12A2 / RFU, IBTK / Fold change vs veh, IBTK / RFU, ESF1 / Fold change vs veh, ESF1 / Fold change vs veh, TMEM50B / RFU, TAOK1 / Fold change vs veh, TAOK1 / RFU, ACBD3 / Fold change vs veh, ACBD3 / RFU, TMA16 / Fold change vs veh, TMA16 / RFU, RWDD3 / Fold change vs veh, RWDD3 / RFU, BCAT1 / Fold change vs veh, BCAT1 / RFU, EDEM3 / Fold change vs veh, EDEM3 / RFU, TMEM33 / Fold change vs veh, TMEM33 / RFU, WDR75 / Fold change vs veh, WDR75 / RFU, AHCTF1 / Fold change vs veh, AHCTF1 / RFU, TFRC / Fold change vs veh, TFRC / RFU, ZDHHC17 / Fold change vs veh, ZDHHC17 / RFU, NOM1 / Fold change vs veh, NOM1 / RFU, ARL8B / Fold change vs veh, ARL8B / RFU, ZBTB11 / Fold change vs veh, ZBTB11 / RFU, TAMM41 / Fold change vs veh, TAMM41 / RFU, KIAA1704 /// LOC100996395 / Fold change vs veh, KIAA1704 /// LOC100996395 / RFU, ING1 / Fold change vs veh, ING1 / RFU, TRMT61B / Fold change vs veh, TRMT61B / RFU, FUBP3 / Fold change vs veh, FUBP3 / RFU, TP53 / Fold change vs veh, TP53 / RFU, TNKS2 / Fold change vs veh, TNKS2 / RFU, ZFP14 / Fold change vs veh, ZFP14 / RFU, ACTR2 / Fold change vs veh, ACTR2 / RFU, PPP3R1 / Fold change vs veh, PPP3R1 / RFU, PIK3R1 / Fold change vs veh, PIK3R1 / RFU, HNRNPA1 / Fold change vs veh, HNRNPA1 / RFU, RNF170 / Fold change vs veh, RNF170 / RFU, ZNF28 / Fold change vs veh, ZNF28 / RFU, RNGTT / Fold change vs veh, RNGTT / RFU, OGT / Fold change vs veh, OGT / RFU, BRD1 / Fold change vs veh, BRD1 / RFU, MARS / Fold change vs veh, MARS / RFU, ZNF655 / Fold change vs veh, ZNF655 / RFU, FAHD1 / Fold change vs veh, FAHD1 / RFU, BDP1 / Fold change vs veh, BDP1 / RFU, LRRCC1 / Fold change vs veh, LRRCC1 / RFU, ARID1A / Fold change vs veh, ARID1A / RFU, ZNF146 / Fold change vs veh, ZNF146 / RFU, ZNF330 / Fold change vs veh, ZNF330 / RFU, GPN3 / Fold change vs veh, GPN3 / RFU, C9orf123 / Fold change vs veh, C9orf123 / RFU, N4BP2L2 / Fold change vs veh, N4BP2L2 / RFU, ARFIP1 / Fold change vs veh, ARFIP1 / RFU, FAM179B / Fold change vs veh, FAM179B / RFU, BCL10 / Fold change vs veh, BCL10 / RFU, UHRF1BP1L / Fold change vs veh, UHRF1BP1L / RFU, BET1 / Fold change vs veh, BET1 / RFU, CNOT2 / Fold change vs veh, CNOT2 / RFU, ZNF268 / Fold change vs veh, ZNF268 / Fold change vs veh, ZNF507 / RFU, DGCR2 / Fold change vs veh, DGCR2 / RFU, WDSUB1 / Fold change vs veh, WDSUB1 / Fold change vs veh, HSP90B1 /// MIR3652 / RFU, ADSS / Fold change vs veh, ADSS / RFU, GK / Fold change vs veh, GK / RFU, ZNF148 / Fold change vs veh, ZNF148 / RFU, TAF9 / Fold change vs veh, TAF9 / RFU, SLC1A5 / Fold change vs veh, SLC1A5 / RFU, SLMO2 / Fold change vs veh, SLMO2 / RFU, ABCC4 / Fold change vs veh, ABCC4 / RFU, LOC101060439 /// RAP1B / Fold change vs veh, LOC101060439 /// RAP1B / RFU, RFX7 / Fold change vs veh, RFX7 / RFU, GTPBP10 / Fold change vs veh, GTPBP10 / RFU, CNEP1R1 / Fold change vs veh, CNEP1R1 / RFU, BIVM-ERCC5 /// ERCC5 / Fold change vs veh, BIVM-ERCC5 /// ERCC5 / RFU, ILF3 / Fold change vs veh, ILF3 / RFU 11762660_at / Fold change /veh 11762660_at / RFU VCAN (11757783_s_at) / Fold change /veh VCAN (11757783_s_at) / RFU DDX43 (11728927_at) / Fold change /veh DDX43 (11728927_at) / RFU KRT8 (11758188_x_at) / Fold change /veh KRT8 (11758188_x_at) / RFU NKD1 (11759106_at) / Fold change /veh NKD1 (11759106_at) / RFU SRD5A1 (11742802_a_at) / Fold change /veh SRD5A1 (11742802_a_at) / RFU TPSAB1 /// TPSB2 (11721975_s_at) / Fold change /veh TPSAB1 /// TPSB2 (11721975_s_at) / RFU GSTM3 (11746129_a_at) / Fold change /veh GSTM3 (11746129_a_at) / RFU IL23R (11737362_x_at) / Fold change /veh IL23R (11737362_x_at) / RFU TMEM51 (11727254_a_at) / Fold change /veh TMEM51 (11727254_a_at) / RFU PIWIL2 (11732686_x_at) / Fold change /veh PIWIL2 (11732686_x_at) / RFU ORM1 (11744905_x_at) / Fold change /veh ORM1 (11744905_x_at) / RFU CCDC152 (11743942_at) / Fold change /veh CCDC152 (11743942_at) / RFU ECM1 (11717891_a_at) / Fold change /veh ECM1 (11717891_a_at) / RFU IL23R (11748794_a_at) / Fold change /veh IL23R (11748794_a_at) / RFU TNFAIP8L3 (11732012_x_at) / Fold change /veh TNFAIP8L3 (11732012_x_at) / RFU MBOAT4 (11741988_at) / Fold change /veh MBOAT4 (11741988_at) / RFU 11764193_at / Fold change /veh 11764193_at / RFU TMEM53 (11763286_at) / Fold change /veh TMEM53 (11763286_at) / RFU MAGEB2 (11727129_at) / Fold change /veh MAGEB2 (11727129_at) / RFU TMEM200A (11744735_a_at) / Fold change /veh TMEM200A (11744735_a_at) / RFU CCDC152 (11751479_a_at) / Fold change /veh CCDC152 (11751479_a_at) / RFU FAM211A (11726209_a_at) / Fold change /veh FAM211A (11726209_a_at) / RFU RGS16 (11746705_a_at) / Fold change /veh RGS16 (11746705_a_at) / RFU VCAN (11755009_s_at) / Fold change /veh VCAN (11755009_s_at) / RFU RHOB (11743442_s_at) / Fold change /veh RHOB (11743442_s_at) / RFU RGS16 (11720943_a_at) / Fold change /veh RGS16 (11720943_a_at) / RFU RGS16 (11720944_at) / Fold change /veh RGS16 (11720944_at) / RFU, VPS4B / Fold change vs veh, VPS4B / RFU, CREB1 / Fold change vs veh, CREB1 / RFU, DNAJC13 / Fold change vs veh, DNAJC13 / RFU, GNAQ / Fold change vs veh, GNAQ / RFU, CDK5R1 / Fold change vs veh, CDK5R1 / RFU, ZRANB3 / Fold change vs veh, ZRANB3 / RFU, CUL4A / Fold change vs veh, CUL4A / RFU, CCNY / Fold change vs veh, CCNY / RFU, UFL1 / Fold change vs veh, UFL1 / RFU, COG3 / Fold change vs veh, COG3 / RFU, DIAPH2 / Fold change vs veh, DIAPH2 / RFU, SKA2 / Fold change vs veh, SKA2 / RFU, AFF3 / Fold change vs veh, AFF3 / RFU, LMF1 / Fold change vs veh, LMF1 / RFU, IPO11 / Fold change vs veh, IPO11 / RFU, DFFB / Fold change vs veh, DFFB / RFU, FOXP1 / Fold change vs veh, FOXP1 / RFU, CARD8 / Fold change vs veh, CARD8 / RFU, STRN3 / Fold change vs veh, STRN3 / RFU, ADK / Fold change vs veh, ADK / RFU, RASSF2 / Fold change vs veh, RASSF2 / RFU, WIPF1 / Fold change vs veh, WIPF1 / RFU, LARP1B / Fold change vs veh, LARP1B / RFU, RASA1 / Fold change vs veh, RASA1 / RFU, RB1 / Fold change vs veh, RB1 / RFU, PPFIA1 / Fold change vs veh, PPFIA1 / RFU, MAT2A / Fold change vs veh, MAT2A / RFU, CCT5 / Fold change vs veh, CCT5 / RFU, WDR92 / Fold change vs veh, WDR92 / RFU, CUX1 / Fold change vs veh, CUX1 / RFU, TTC7A / Fold change vs veh, TTC7A / RFU, TMEM135 / Fold change vs veh, TMEM135 / RFU, DEPTOR / Fold change vs veh, DEPTOR / RFU, CPM / Fold change vs veh, CPM / RFU, DNAJB6 / Fold change vs veh, DNAJB6 / RFU, CACNA2D3 / Fold change vs veh, CACNA2D3 / RFU, DTX4 / Fold change vs veh, DTX4 / RFU, TFCP2 / Fold change vs veh, TFCP2 / RFU, GMCL1 /// GMCL1P1 / Fold change vs veh, GMCL1 /// GMCL1P1 / RFU, AEBP2 / Fold change vs veh, AEBP2 / RFU, SNHG1 /// SNORD22 /// SNORD25 /// SNORD26 /// SNORD27 /// SNORD28 /// SNORD29 /// SNORD31 / Fold change vs veh, SNHG1 /// SNORD22 /// SNORD25 /// SNORD26 /// SNORD27 /// SNORD28 /// SNORD29 /// SNORD31 / Fold change (Aza/veh), C12orf56 (ProbeSet 11735607_a_at) / Fold change (ACY-1035/veh), C12orf56 (ProbeSet 11735607_a_at) / Fold change (Aza/veh), FGFR1OP (ProbeSet 11751329_s_at) / Fold change (ACY-1035/veh), FGFR1OP (ProbeSet 11751329_s_at) / Fold change (Aza/veh), VPS36 (ProbeSet 11739960_a_at) / Fold change (ACY-1035/veh), VPS36 (ProbeSet 11739960_a_at) / RFU SYPL1 (11715823_x_at) / Fold change /veh SYPL1 (11715823_x_at) / RFU IGFBP7 (11715501_s_at) / Fold change /veh IGFBP7 (11715501_s_at) / RFU REEP3 (11722064_at) / Fold change /veh REEP3 (11722064_at) / RFU IGLL1 (11728026_x_at) / Fold change /veh IGLL1 (11728026_x_at): dose or concentration left out as unconfirmed
Details: ProbeSet 11743567_s_at; LIST B

Structure (SMILES): Nc1ncn([C@@H]2O[C@H](CO)[C@@H](O)[C@H]2O)c(=O)n1 [azacitidine]
- Fold change vs veh, ACBD3: 1.04
